Reference: patent US9409884B2 (Rigel Pharmaceuticals, Inc., priority 2012, dated 2016)

Target: AMPK
Test: AMPK activation, enzyme-linked immunosorbent assay
Assay type: biochemical
Conditions: Table 8, compounds of Table 1
Experimental: Compounds of Table 1 were assayed for their ability to activate AMPK using an enzyme-linked immunosorbent assay.
Compounds of Table 2 were assayed for their ability to activate AMPK using an enzyme-linked immunosorbent assay.
Compounds of Table 3 were assayed for their ability to activate AMPK using an enzyme-linked immunosorbent assay.
Compounds of Table 4 were assayed for their ability to activate AMPK using an enzyme-linked immunosorbent assay.
Compounds of Table 5 were assayed for their ability to activate AMPK using an enzyme-linked immunosorbent assay.
Compounds of Table 6 were assayed for their ability to activate AMPK using an enzyme-linked immunosorbent assay.
Compounds of Table 7 were assayed for their ability to activate AMPK using an enzyme-linked immunosorbent assay.

**Q.** For N#Cc1ccc(CN2CCC(NC(=O)c3ccnc(OC4CCN(c5ccc(C(F)(F)F)cc5)CC4)c3)CC2)cc1 [Compound 1-21, N-(1-(4-cyanobenzyl)piperidin-4-yl)-2-(1-(4-(trifluoromethyl)phenyl)piperidin-4-yloxy) isonicotinamide], which EC50 is on record?
**A.** 100 to 500 nM

**Q.** How did the EC50 turn out when O=C(NC1CCN(Cc2ccc(F)cc2)CC1)c1ccnc(OC2CCN(c3ccc(C(F)(F)F)cc3)CC2)c1 [Compound 1-22, N-(1-(4-fluorobenzyl)piperidin-4-yl)-2-(1-(4-(trifluoromethyl)phenyl)piperidin-4-yloxy) isonicotinamide] was run?
**A.** 1000 to 5000 nM

**Q.** How did the EC50 turn out when CC(C)(C)OC(=O)N1CC[C@@H](NC(=O)c2ccc(OC3CCN(c4ccc(C(F)(F)F)cc4)CC3)cn2)C1 [Compound 1-23, (R)-tert-butyl 3-(5-(1-(4-(trifluoromethyl)phenyl)piperidin-4-yloxy)picolinamido) pyrrolidine-1-carboxylate] was run?
**A.** 100 to 500 nM

**Q.** O=C(N[C@@H]1CCNC1)c1ccc(OC2CCN(c3ccc(C(F)(F)F)cc3)CC2)cn1 [Compound 1-24, (R)-N-(pyrrolidin-3-yl)-5-(1-(4-(trifluoromethyl)phenyl)piperidin-4-yloxy) picolinamide] was tested. Which EC50 did it give?
**A.** 5000 to 10000 nM

**Q.** O=C(N[C@@H]1CCN(Cc2ccncc2)C1)c1ccc(OC2CCN(c3ccc(C(F)(F)F)cc3)CC2)cn1 [Compound 1-25, (R)-N-(1-(pyridin-4-ylmethyl)pyrrolidin-3-yl)-5-(1-(4-(trifluoromethyl)phenyl)piperidin-4-yloxy)picolinamide] was tested. Which EC50 did it give?
**A.** 100 to 500 nM

**Q.** CC(C)(C)OC(=O)N1CC[C@H](NC(=O)c2ccc(OC3CCN(c4ccc(C(F)(F)F)cc4)CC3)cn2)C1 [Compound 1-26, (S)-tert-butyl 3-(5-(1-(4-(trifluoromethyl)phenyl)piperidin-4-yloxy)picolinamido) pyrrolidine-1-carboxylate] was tested. Which EC50 did it give?
**A.** 100 to 500 nM

**Q.** With O=C(N[C@H]1CCNC1)c1ccc(OC2CCN(c3ccc(C(F)(F)F)cc3)CC2)cn1 [Compound 1-27, (S)-N-(pyrrolidin-3-yl)-5-(1-(4-(trifluoromethyl)phenyl)piperidin-4-yloxy)picolinamide] as the compound, how does the EC50 read?
**A.** > 10000 nM

**Q.** With N#Cc1ccc(CN2CCC(NC(=O)c3cc(OC4CCN(c5ccc(C(F)(F)F)cc5)CC4)ccn3)CC2)cc1 [Compound 1-28, N-(1-(4-cyanobenzyl)piperidin-4-yl)-4-(1-(4-(trifluoromethyl)phenyl)piperidin-4-yloxy)picolinamide] as the compound, how does the EC50 read?
**A.** < 100 nM

**Q.** How did the EC50 turn out when O=C(NC1CCN(Cc2ccc(F)cc2)CC1)c1cc(OC2CCN(c3ccc(C(F)(F)F)cc3)CC2)ccn1 [Compound 1-29, N-(1-(4-fluorobenzyl)piperidin-4-yl)-4-(1-(4-(trifluoromethyl)phenyl)piperidin-4-yloxy)picolinamide] was run?
**A.** 100 to 500 nM

**Q.** For O=C(N[C@H]1CCN(Cc2ccncc2)C1)c1ccc(OC2CCN(c3ccc(C(F)(F)F)cc3)CC2)cn1 [Compound 1-30, (S)-N-(1-(pyridin-4-ylmethyl)pyrrolidin-3-yl)-5-(1-(4-(trifluoromethyl)phenyl)piperidin-4-yloxy)picolinamide], which EC50 is on record?
**A.** < 100 nM

**Q.** N#Cc1ccc(CN2CC[C@H](NC(=O)c3ccc(OC4CCN(c5ccc(C(F)(F)F)cc5)CC4)cn3)C2)cc1 [Compound 1-31, (S)-N-(1-(4-cyanobenzyl)pyrrolidin-3-yl)-5-(1-(4-(trifluoromethyl)phenyl)piperidin-4-yloxy) picolinamide] was tested. Which EC50 did it give?
**A.** < 100 nM

**Q.** For O=C(N[C@H]1CCN(Cc2ccc(F)cc2)C1)c1ccc(OC2CCN(c3ccc(C(F)(F)F)cc3)CC2)cn1 [Compound 1-32, (S)-N-(1-(4-fluorobenzyl)pyrrolidin-3-yl)-5-(1-(4-(trifluoromethyl)phenyl)piperidin-4-yloxy) picolinamide], which EC50 is on record?
**A.** 100 to 500 nM

**Q.** N#Cc1ccc(CN2CC[C@@H](NC(=O)c3ccc(OC4CCN(c5ccc(C(F)(F)F)cc5)CC4)cn3)C2)cc1 [Compound 1-33, (R)-N-(1-(4-cyanobenzyl)pyrrolidin-3-yl)-5-(1-(4-(trifluoromethyl)phenyl)piperidin-4-yloxy) picolinamide] was tested. Which EC50 did it give?
**A.** 500 to 1000 nM

**Q.** How did the EC50 turn out when O=C(N[C@@H]1CCN(Cc2ccc(F)cc2)C1)c1ccc(OC2CCN(c3ccc(C(F)(F)F)cc3)CC2)cn1 [Compound 1-34, (R)-N-(1-(4-fluorobenzyl)pyrrolidin-3-yl)-5-(1-(4-(trifluoromethyl)phenyl)piperidin-4-yloxy) picolinamide] was run?
**A.** 500 to 1000 nM

**Q.** How did the EC50 turn out when N#Cc1ccc(CN2CCC(NC(=O)c3ccc(OC4CCN(c5ccc(C(F)(F)F)cc5)CC4)nc3)CC2)cc1 [Compound 1-35, N-(1-(4-cyanobenzyl)piperidin-4-yl)-6-(1-(4-(trifluoromethyl)phenyl)piperidin-4-yloxy) nicotinamide] was run?
**A.** 100 to 500 nM

**Q.** With O=C(NC1CCN(CCc2ccccc2)CC1)c1ccc(OC2CCN(c3ccc(C(F)(F)F)cc3)CC2)cn1 [Compound 1-36, N-(1-phenethylpiperidin-4-yl)-5-(1-(4-(trifluoromethyl)phenyl)piperidin-4-yloxy) picolinamide] as the compound, how does the EC50 read?
**A.** 500 to 1000 nM

**Q.** For O=C(NC1CCN(Cc2ccc3ccccc3c2)CC1)c1ccc(OC2CCN(c3ccc(C(F)(F)F)cc3)CC2)cn1 [Compound 1-37, N-(1-(naphthalen-2-ylmethyl)piperidin-4-yl)-5-(1-(4-(trifluoromethyl)phenyl)piperidin-4-yloxy)picolinamide], which EC50 is on record?
**A.** 500 to 1000 nM

**Q.** O=C(NC1CCN(Cc2ccccc2)CC1)c1ccc(OC2CCN(c3ccc(C(F)(F)F)cc3)CC2)cn1 [Compound 1-38, N-(1-benzylpiperidin-4-yl)-5-(1-(4-(trifluoromethyl)phenyl)piperidin-4-yloxy)picolinamide] was tested. Which EC50 did it give?
**A.** 1000 to 5000 nM

**Q.** Which EC50 does the source give for CN(C)c1ccc(CN2CCC(NC(=O)c3ccc(OC4CCN(c5ccc(C(F)(F)F)cc5)CC4)cn3)CC2)cc1 [Compound 1-39, N-(1-(4-(dimethylamino)benzyl)piperidin-4-yl)-5-(1-(4-(trifluoromethyl)phenyl)piperidin-4-yloxy)picolinamide] here?
**A.** 100 to 500 nM

**Q.** O=C(NC1CCN(Cc2ccc(N3CCOCC3)cc2)CC1)c1ccc(OC2CCN(c3ccc(C(F)(F)F)cc3)CC2)cn1 [Compound 1-40, N-(1-(4-morpholinobenzyl)piperidin-4-yl)-5-(1-(4-(trifluoromethyl)phenyl)piperidin-4-yloxy)picolinamide] was tested. Which EC50 did it give?
**A.** < 100 nM

**Q.** Which EC50 does the source give for N#Cc1ccc(CN2CC(NC(=O)c3ccc(OC4CCN(c5ccc(C(F)(F)F)cc5)CC4)cn3)C2)cc1 [Compound 1-41, N-(1-(4-cyanobenzyl)azetidin-3-yl)-5-(1-(4-(trifluoromethyl)phenyl)piperidin-4-yloxy)picolinamide] here?
**A.** 100 to 500 nM

**Q.** With O=C(NC1CN(Cc2ccncc2)C1)c1ccc(OC2CCN(c3ccc(C(F)(F)F)cc3)CC2)cn1 [Compound 1-42, N-(1-(pyridin-4-ylmethyl)azetidin-3-yl)-5-(1-(4-(trifluoromethyl)phenyl)piperidin-4-yloxy)picolinamide] as the compound, how does the EC50 read?
**A.** 1000 to 5000 nM

**Q.** With O=C(NC1CCN(Cc2ccncc2)CC1)c1cccc(OC2CCN(c3ccc(C(F)(F)F)cc3)CC2)n1 [Compound 1-43, N-(1-(pyridin-4-ylmethyl)piperidin-4-yl)-6-(1-(4-(trifluoromethyl)phenyl)piperidin-4-yloxy)picolinamide] as the compound, how does the EC50 read?
**A.** 1000 to 5000 nM

**Q.** With O=C(NC1CCN(Cc2cncnc2)CC1)c1ccc(OC2CCN(c3ccc(C(F)(F)F)cc3)CC2)cn1 [Compound 1-44, N-(1-(pyrimidin-5-ylmethyl)piperidin-4-yl)-5-(1-(4-(trifluoromethyl)phenyl)piperidin-4-yloxy)picolinamide] as the compound, how does the EC50 read?
**A.** 100 to 500 nM
